According to the supplement of paper PMC6718421:

Test system: Caenorhabditis elegans
Assay: animals per well after 6 days (50 L1 seeded); higher = more viable animals (less toxic)
Description: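 About 50 synchronized L1s per well were grown in liquid NGM with E. coli HB101 and twofold serial dilutions (0.12-120 uM) of crystal- or sphere-forming wactives for 6 days at 20 C; animals per well were counted, and overgrown wells (>50 animals) were scored as 100. Values are averages of replicate wells for wild type and sms-5(ok2498).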

CCCc1nc(-c2ccc(-c3ccc(F)cc3)cc2)no1 [wact-390]
animals per well
Conditions	genotype: sms-5(ok2498)	genotype: wild type N2
0.1171875 µM	> 100	> 100
0.234375 µM	> 100	> 100
0.46875 µM	> 100	> 100
0.9375 µM	> 100	> 100
1.875 µM	> 100	56.2
3.75 µM	> 100	4.83
7.5 µM	> 100	3.33
15 µM	> 100	2.83
30 µM	> 100	2.33
60 µM	> 100	0.333
120 µM	92.7	0.667
